“And” between values parts separate entries of the source, which are not always exact repeats. Identical values can stand only once. Inconclusive results and toxic doses are left out. Rule for the calls: active = survival T/C of 150% or more; inactive = T/C below 125% in these data.
Tested on: BDF1 mice, B16 melanoma ip, median survival T/C
Experiment: NCI In Vivo Anticancer Drug Screen. Data for tumor model B16 Melanoma (intraperitoneal) in B6D2F1 (BDF1) mice
Conditions: endpoint: median survival time, higher = longer survival
Method: The antitumor activity of compounds was measured in mice bearing transplantable tumors. Survival or tumor size were measured and the results are expressed as the measurement made in the treated group (T) divided by the measurement made in the vehicle treated control group (C). The tumor model used in this assay is B16 Melanoma (intraperitoneal) in B6D2F1 (BDF1) mice

[1] = dose: 100.0 mg/kg/injection, schedule: Q04DX003 (ip), vehicle: saline with Tween-80
[2] = dose: 200.0 mg/kg/injection, schedule: Q04DX003 (ip), vehicle: saline with Tween-80
[3] = dose: 400.0 mg/kg/injection, schedule: Q04DX003 (ip), vehicle: saline with Tween-80
[4] = dose: 25.0 mg/kg/injection, schedule: Q01DX009 (ip), vehicle: Klucel (hydroxypropylcellulose) (HPC)
[5] = dose: 100.0 mg/kg/injection, schedule: Q01DX009 (ip), vehicle: other
[6] = dose: 200.0 mg/kg/injection, schedule: Q01DX009 (ip), vehicle: other
[7] = dose: 12.5 mg/kg/injection, schedule: Q01DX009 (ip), vehicle: water
[8] = dose: 25.0 mg/kg/injection, schedule: Q01DX009 (ip), vehicle: water
[9] = dose: 50.0 mg/kg/injection, schedule: Q01DX009 (ip), vehicle: water
[10] = dose: 6.25 mg/kg/injection, schedule: Q01DX009 (ip), vehicle: saline with Tween-80
[11] = dose: 12.5 mg/kg/injection, schedule: Q01DX009 (ip), vehicle: saline with Tween-80
[12] = dose: 25.0 mg/kg/injection, schedule: Q01DX009 (ip), vehicle: saline with Tween-80
[13] = dose: 50.0 mg/kg/injection, schedule: Q01DX009 (ip), vehicle: saline with Tween-80
[14] = dose: 50.0 mg/kg/injection, schedule: Q01DX009 (ip), vehicle: Klucel (hydroxypropylcellulose) (HPC)
[15] = dose: 100.0 mg/kg/injection, schedule: Q01DX009 (ip), vehicle: saline with Tween-80
[16] = dose: 200.0 mg/kg/injection, schedule: Q01DX009 (ip), vehicle: saline with Tween-80
[17] = dose: 100.0 mg/kg/injection, schedule: Q04DX003 (ip), vehicle: Klucel (hydroxypropylcellulose) (HPC)
[18] = dose: 400.0 mg/kg/injection, schedule: Q04DX003 (ip), vehicle: Klucel (hydroxypropylcellulose) (HPC)
[19] = dose: 100.0 mg/kg/injection, schedule: Q01DX009 (ip), vehicle: Klucel (hydroxypropylcellulose) (HPC)
[20] = dose: 200.0 mg/kg/injection, schedule: Q01DX009 (ip), vehicle: Klucel (hydroxypropylcellulose) (HPC)
[21] = dose: 400.0 mg/kg/injection, schedule: Q01DX009 (ip), vehicle: Klucel (hydroxypropylcellulose) (HPC)
[22] = dose: 400.0 mg/kg/injection, schedule: Q01DX009 (ip), vehicle: saline with Tween-80

Measured: T/C

O=C(NO)N/N=C/c1ccc(/C=N/NC(=O)NO)cc1
inactive: [1] 100 % of control | [2] 102 % of control | [3] 90 % of control

CCN(C(=O)CCl)C(C)(C)C(SSSC(c1ccc(Cl)cc1)C(C)(C)N(CC)C(=O)CCl)c1ccc(Cl)cc1 (stereo not given)
inactive: dose: 12.5 mg/kg/injection, schedule: Q01DX009 (ip), vehicle: Klucel (hydroxypropylcellulose) (HPC) 100 % of control | [4] 98 % of control

CCCCCCC(O)CCCC (stereo not given)
inactive: [5] 103 % of control | [6] 90 % of control

C/C(=C\c1ccccc1)C(=O)c1ccccc1
inactive: [1] 100 % of control | [2] 113 % of control | [3] 92 % of control

NNc1ncnc2nc[nH]c12
inactive: dose: 12.5 mg/kg/injection, schedule: Q01DX009 (ip), vehicle: saline 108 % of control | dose: 25.0 mg/kg/injection, schedule: Q01DX009 (ip), vehicle: saline 120 % of control | dose: 50.0 mg/kg/injection, schedule: Q01DX009 (ip), vehicle: saline 100 % of control

CC#CCOCC(O)CO (stereo not given)
inactive: [7] 105 % of control | [8] 93 % of control | [9] 113 % of control | dose: 100.0 mg/kg/injection, schedule: Q01DX009 (ip), vehicle: water 114 % of control

COC(=O)Nc1ccc(Cc2ccc(NC(=O)OC)cc2)cc1
inactive: [10] 107 % of control | [11] 110 % of control | [12] 112 % of control | [13] 115 % of control

NC1(C(=O)O)CSSC1
inactive: [4] 95 % of control | [14] 100 % of control

NNC(=O)c1ccc(N)cc1
inactive: [13] 112 % of control | [15] 102 % of control | [16] 97 % of control

Cc1cc(OCc2nc(N)nc(N)c2-c2ccc(Cl)c(Cl)c2)ccc1NS(=O)(=O)c1cccc(S(=O)(=O)F)c1
inactive: dose: 117.0 mg/kg/injection, schedule: Q04DX003 (ip), vehicle: saline 122 % of control | dose: 400.0 mg/kg/injection, schedule: Q04DX003 (ip), vehicle: saline 117 % of control

CCN(CC)CC#N
inactive: dose: 1.0 mg/kg/injection, schedule: Q01DX009 (ip), vehicle: saline 94 % of control | dose: 2.0 mg/kg/injection, schedule: Q01DX009 (ip), vehicle: saline 105 % of control | dose: 4.0 mg/kg/injection, schedule: Q01DX009 (ip), vehicle: saline 104 % of control

CCCCCc1ccc(C(=O)O)cc1
inactive: [12] 105 % of control | [13] 102 % of control | [15] 111 % of control

COc1ccc(C2=CN(S(=O)(=O)c3ccc(C)cc3)CCc3ccccc32)cc1
inactive: dose: 25.0 mg/kg/injection, schedule: Q04DX003 (ip), vehicle: Klucel (hydroxypropylcellulose) (HPC) 112 % of control | dose: 50.0 mg/kg/injection, schedule: Q04DX003 (ip), vehicle: Klucel (hydroxypropylcellulose) (HPC) 110 % of control | [17] 91 % of control and 111 % of control | [18] 90 % of control

CC(C)CCC[C@@H](C)[C@H]1CC[C@H]2[C@@H]3CC=C4C[C@@H](O)CC[C@]4(C)[C@H]3CC[C@]12C
inactive: [5] 98 % of control | [6] 114 % of control

N#Cc1ccc(/C=C/C(=O)c2ccccc2)cc1
inactive: [19] 101 % of control | [20] 101 % of control

Nc1n[nH]c(C(=O)O)n1
inactive: [19] 97 % of control | [20] 97 % of control | [21] 97 % of control

CCCCCCCCCCCC[N+]1(CCCCCCCCCCCC)CCCC(C)C1 (stereo not given)
inactive: dose: 0.09 mg/kg/injection, schedule: Q01DX009 (ip), vehicle: Klucel (hydroxypropylcellulose) (HPC) 95 % of control | dose: 0.18 mg/kg/injection, schedule: Q01DX009 (ip), vehicle: Klucel (hydroxypropylcellulose) (HPC) 97 % of control | dose: 0.37 mg/kg/injection, schedule: Q01DX009 (ip), vehicle: Klucel (hydroxypropylcellulose) (HPC) 93 % of control and 95 % of control

[Cl][Pt+2][Cl].[NH-]c1ccc(Cl)cc1[NH-]
inactive: dose: 2.5 mg/kg/injection, schedule: Q01DX009 (ip), vehicle: saline with Tween-80 108 % of control | dose: 40.0 mg/kg/injection, schedule: Q01DX009 (ip), vehicle: saline with Tween-80 123 % of control
active: dose: 20.0 mg/kg/injection, schedule: Q01DX009 (ip), vehicle: saline with Tween-80 153 % of control

CCCCCCCC(O)CCCCC (stereo not given)
inactive: [19] 99 % of control | [20] 103 % of control | [21] 94 % of control

Cc1ccc(Cl)cc1NC(=O)Nc1ccc(C)c(NC(=O)Nc2cc(Cl)ccc2C)c1
inactive: [15] 90 % of control | [16] 95 % of control | [22] 90 % of control

C[C@]12CC[C@H](OC(=O)Cc3ccc(N(CCCl)CCCl)cc3)CC1=CC[C@@H]1[C@@H]2CC[C@]2(C)C(=O)CC[C@@H]12
inactive: [15] 92 % of control | [1] 115 % of control | [16] 97 % of control | [2] 105 % of control | [3] 105 % of control

COC1C(O)CC(OC2C(C)OC(Oc3cc(O)c4c(O)c5c(cc4c3)C[C@@H]([C@H](OC)C(=O)[C@@H](O)[C@@H](C)O)[C@H](OC3CC(OC4CC(OC6CC(C)(O)C(O)C(C)O6)C(O)C(C)O4)C(O)C(C)O3)C5=O)CC2OC(C)=O)OC1C (stereo not given in full)
inactive: dose: 37.5 mg/kg/injection, schedule: Q01DX009 (ip), vehicle: saline 110 % of control | dose: 75.0 mg/kg/injection, schedule: Q01DX009 (ip), vehicle: saline 113 % of control | dose: 150.0 mg/kg/injection, schedule: Q01DX009 (ip), vehicle: saline 111 % of control

CCN(CC)C(N)=S
inactive: [17] 102 % of control | dose: 200.0 mg/kg/injection, schedule: Q04DX003 (ip), vehicle: Klucel (hydroxypropylcellulose) (HPC) 95 % of control | [18] 97 % of control

COc1cc(OC)c(/C=C/c2cc[n+](C)c3ccccc23)c(OC)c1
inactive: dose: 0.75 mg/kg/injection, schedule: Q01DX009 (ip), vehicle: saline 105 % of control | dose: 1.5 mg/kg/injection, schedule: Q01DX009 (ip), vehicle: saline 95 % of control | dose: 3.0 mg/kg/injection, schedule: Q01DX009 (ip), vehicle: saline 97 % of control

Oc1ccc2ccccc2c1Cc1c(O)ccc2ccccc12
inactive: [12] 93 % of control | [13] 91 % of control | [15] 94 % of control | [16] 90 % of control

COc1cc(OC)c(NC(=O)c2ccccc2Cl)cc1Cl
inactive: [19] 97 % of control | [20] 102 % of control | [21] 102 % of control

Cc1c(NCO)c(=O)n(-c2ccccc2)n1C
inactive: dose: 100.0 mg/kg/injection, schedule: Q01DX009 (ip), vehicle: saline 102 % of control | dose: 200.0 mg/kg/injection, schedule: Q01DX009 (ip), vehicle: saline 94 % of control | dose: 400.0 mg/kg/injection, schedule: Q01DX009 (ip), vehicle: saline 91 % of control

CC(=O)Oc1ccc(C)cc1
inactive: [14] 103 % of control | [19] 112 % of control | [20] 103 % of control

NNC(=O)Cc1nc2ccccc2[nH]c1=O
inactive: [14] 96 % of control | [19] 96 % of control | [20] 90 % of control

COc1cc2ccncc2cc1O
inactive: dose: 6.25 mg/kg/injection, schedule: Q01DX009 (ip), vehicle: water 104 % of control | [7] 95 % of control | [8] 109 % of control | [9] 98 % of control

CC1=CCC(C(C)C)C=C1 (stereo not given)
inactive: [4] 92 % of control | [14] 94 % of control | [19] 94 % of control | [20] 89 % of control

CC1(C)SC2C(NC(=O)C(N)c3ccccc3)C(=O)N2C1C(=O)O (stereo not given)
inactive: [15] 100 % of control | [16] 95 % of control | [22] 90 % of control

COc1ccc2ccccc2c1C1NC(=O)c2ccccc2N1 (stereo not given)
inactive: [14] 106 % of control | [19] 108 % of control | [20] 109 % of control | [21] 115 % of control

O=C(CO)c1ccc([N+](=O)[O-])cc1
inactive: dose: 3.12 mg/kg/injection, schedule: Q01DX009 (ip), vehicle: saline with Tween-80 97 % of control and 100 % of control | [10] 103 % of control | [11] 99 % of control and 106 % of control | [12] 100 % of control and 104 % of control | [13] 96 % of control and 108 % of control | [15] 93 % of control and 100 % of control

c1cc2cc3c(cc2c2c1CC1c4cc5c(cc4CCN1C2)OCO5)OCO3 (stereo not given)
inactive: [19] 89 % of control | [20] 86 % of control

Source: PubChem BioAssay AID192 (DTP/NCI, 2004)
